Assay results published in patent publication US9045415B2, “Targeting of EWS-FLI1 as anti-tumor therapy” (Georgetown University, priority 2006, dated 2015).
Residues, ends and D or L forms follow the SMILES beside them. *: point of attachment. FITC = O=C1OC2(c3ccc(O)cc3Oc3cc(O)ccc32)c2ccc(NC(=S)*)cc21

Tests used:
TC32 cells = assay: Monolayer cell growth (MTT or WST), TC32; format: cell-based; details: TC32 monolayer, 10 μM
Experimental: (§1) In FIG. 13A, recombinant EWS-FLI1 was treated with NSC635437 for 30 minutes. GST-RHA (630-1020) was added and the complexes were then precipitated with antibody to EWS-FLI1 and Protein G beads. Resolved complexes showing the immunoprecipitated complex control without compound are in lanes 3 (0.1% DMSO) and 5 (0.01% DMSO). […] ESFT TC32 (◯) and neuroblastoma SK-N-AS (▪) were grown for 72 hours in the continuous presence of NSC635437. Cells were incubated in MTT reagent for 4 hours and the dried precipitate was dissolved isopropanol and the absorbance read at 570 nm. Each cell line was standardized to the growth of the DMSO control.
(§2) FIG. 30 provides data to show E9R peptide prevents EWS-FLI1 binding to RHA with specific detrimental effects upon ESFT growth and transformation. […] Scale bar equals 20 μm. […] Only expression of EGFP-E9R in TC71 reduced anchorage independent growth. […] Scale bar equals 20 μm.
FIG. 33 provides data showing YK-4-279 is potent and specific inhibitor of ESFT. […] Cell number was measured by MTT or WST reduction after seven days in culture. […] FIG. 33D cell lines expressing EWS-FLI1 compared to non-EWS-FLI1 malignant cell lines following 3 days in culture to establish the IC50 using WST assay. […] Graph plots level of fluorescence in treated divided by untreated lysate. […] Scale bar equals 200 μm.

CBP (aa 1680-1890) = CBP (aa 1680-1890) (Homo sapiens, UniProt Q92793); assay: Competitive ELISA, RHA binding to CBP; details: RHA 4 nM, E9RP 0.01-30 μM
Experimental: (§3) E9RP is the peptide region of RHA (E9R; SEQ ID NO: 29) fused to the Penetratin peptide (from the Antennapedia homeodomain; SEQ ID NO: 34). In FIG. 5A, E9RP was used in a competition experiment for blocking binding of RHA to EWS-FLI1. Wells were coated with 500 ng EWS-FLI1. RHA (4 nM) was added on to wells in the presence of E9RP (0.01-30 μM). In FIG. 5B, wells were coated with 500 ng/well recombinant CBP. RHA (4 nM) was added to wells with E9RP (0.01-30 μM).
(§4) E9RP was evaluated for the ability to block RHA from binding to EWS-FLI1 using both competitive ELISA assay and solution immunoprecipitation assays. In addition, specificity of interaction was evaluated by disrupting EWS-FLI1 binding from RHA without interfering with other RHA binding proteins. Creb-binding protein (CBP, p300) is critical to cellular basal transcription, so it was determined if a peptide that would disrupt EWS-FLI1 binding from RHA could also disrupt CBP binding.

[1] = test system: neuroblastoma SKNAS cells; assay: Monolayer cell growth, neuroblastoma; format: cell-based; details: E9RP 10 μM; seven days
Description: (§5) FIGS. 8A-E show E9RP inhibits ESFT cell growth. In FIGS. 8A and 8B, E9RP is the peptide region of RHA (SEQ ID NO:29) fused to the Penetratin peptide (from the Antennapedia homeodomain; SEQ ID NO:34) and contains amino-terminal fluorescein (FITC). […] Neither lipids nor electricity were used for transduction of peptides into cells. Confocal microscopy identified peptide throughout cells with nuclear uptake. Nuclear uptake was confirmed by DAPI staining. […] Cell lines were placed in 96-well plates with either vehicle alone (●), or E9RP (10 μM) on days 0, 3 and 5 (▴). No lipid or other transfection method was utilized. This represents two experiments with similar results. FIG. 8D depicts dose response of ESFT 1 to either wild-type or single amino-acid mutant peptides. (▪) wild-type E9RP, (E9R (SEQ ID NO:29) fused to the Penetratin peptide (SEQ ID NO:34)), (▾)(E9RP (P2A peptide (SEQ ID NO:30) fused to the Penetratin peptide (SEQ ID NO:34)), (▴)E9RP (D5A peptide (SEQ ID NO:31) fused to the Penetratin peptide (SEQ ID NO:34)). Growth normalized to treating cells with the 16 aa Antp sequence alone (SEQ ID NO:34). FIG. 8E is a comparison of wild-type versus mutant peptides in ESFT and NB cells.
as §1, §2

RHA binding to EWS-FLI1 [2] = assay: Competitive ELISA, RHA binding to EWS-FLI1; details: RHA 4 nM, E9RP 0.01-30 μM; read-out: IC50, prevention of RHA binding to EWS-FLI1
Experimental: as §3, §4

RHA binding to EWS-FLI1 [3] = assay: Solution immunoprecipitation of GST-RHA with recombinant EWS-FLI1; set-up: species or system human
Experimental: E9RP is the peptide region of RHA (E9R; SEQ ID NO: 29) fused to the Penetratin peptide (from the Antennapedia homeodomain; SEQ ID NO: 34). Immunoprecipitation of GST-RHA using recombinant EWS-FLI1 bound to a FLI1 antibody. […] E9RP is the sequence of aa 823-832 of human RHA that were synthesized.
as §1
Protein lysates and immunoprecipitations were performed as previously published (Uren et al (2005)). Recombinant GST-RHA (647-1075) was prepared from crude bacterial extracts without further purification.
Reagents were developed to block RHA binding to EWS-FLI1 since RHA is necessary for optimal EWS-FLI1 activity. The E9R peptide corresponds to amino acids 823 to 832, located in the proximal HA2 region of RHA (FIG. 29A). A cell-free protein interaction assay was developed to test whether E9R peptide inhibits RHA binding to EWS-FLI1. […] It was determined whether disrupted EWS-FLI1/RHA binding inhibited cell growth.

[4] = test system: ESFT cell lines TC32 (ESFT 1) and 5838 (ESFT 2); assay: Peptide growth inhibition, ESFT cell lines 1 and 2; format: cell-based; details: 10 μM on days 0, 3 and 5; seven days
Description: as §5

[5] = test system: two additional sarcoma cell lines, lacking EWS-FLI1; assay: Peptide growth inhibition, additional sarcoma cell lines; format: cell-based; details: data not shown
ESFT cells TC71 = assay: Xenografts of TC71 cells transfected with E9R expression plasmids; format: in vivo, mice; details: pGE9R vs pGE9R-D5A, 26 days
Experimental: ESFT cells TC71 were transfected with pGE9R (wild-type sequence peptide (SEQ ID NO: 29)) or pGE9R-D5A (control, mutated peptide; D5A (SEQ ID NO: 31)). In FIG. 10A, fluorescent micrographs of transfected cells after 4 days in culture are presented. […] Bar equals 300 microns. In FIG. 10B, each group contains six mice. Mice legs were measured every 2-3 days. Tumors appeared in 2 weeks. The experiment was terminated after 26 days when the largest tumor caused the mouse to limp. Tumor volumes were calculated according to (D×d2/6)×π formula, where large diameter of tumor mass is D and small diameter is d. 2-way ANOVA analysis, followed by Bonferroni correction for multiple variables, the difference in the two growth curves was highly significant, p=0.016.
The ability of the E9R peptide sequence to prevent ESFT tumorigenesis in a pilot murine xenograft experiment was determined. As a control peptide, the same mutation that prevented wild-type RHA from binding to EWS-FLI1 (D827A, noted in the 10-mer peptide as E9R-D5A) was created. ESFT cells were transfected with either pGE9R or pGE9R-D5A by electroporation. A transfection efficiency of greater than 80% using fluorescent microscopy (FIG. 10A) was observed. […] Every two to three days, each animal's thigh was measured in three dimensions, and tumor volumes were calculated. […]

rhabdomyosarcoma cells = assay: Soft-agar anchorage-independent growth, rhabdomyosarcoma cells expressing E9R; format: cell-based; details: E9R expression
Description: (§6) Plasmids that express E9R fused to enhanced green fluorescent protein (EGFP) were transfected into either Ewing's Sarcoma (TC71) or rhabdomyosarcoma (RP) cells and placed in soft-agar for anchorage-independent growth. The pGE9R plasmid diffusely expressed E9R while the pGCE9R plasmid contained a nuclear export sequence to prevent expressed peptide from entering the nucleus. The transfected cells were placed in soft agar culture for 2 weeks and stained with MTT. When E9R was diffusely expressed, including the nucleus, ESFT (containing EWS-FLI1) soft-agar colony growth was suppressed.
(§7) Since the Antp peptides added to media would not remain in the cells for 2 weeks during soft-agar colony growth, expression peptides were used to provide continuous exposure to peptide. A pair of expression plasmids with cloning sites downstream of the enhanced green fluorescent protein (EGFP) was obtained; the pG plasmid contained no localizing sequence and was expressed throughout the cells (FIG. 9, left panels). The pGC plasmids contained a nuclear export sequence that blocked peptide transport into the nucleus (FIG. 9, right panels). The E9R DNA sequence was synthesized and the hybridized oligodeoxynucleotides were inserted into the cloning site downstream of either EGFP or EGFP and nuclear export sequence.

EWS-FLI1 = assay: SPR displacement assay of E9R from EWS-FLI1; format: binding
Description: FIG. 31 provides data showing a small molecule binding to EWS-FLI1 and displaces E9R from EWS-FLI1. […] Aromatic functionalization produced YK-4-279 a para-methoxy derivative of NSC635437. […] A FLI1 antibody complexed EWS-FLI1 and precipitated it from the solution.
An aromatic optimization strategy was used to design analogs to improve upon the activity of NSC635437.

TC71 (ESFT) cells = assay: Soft-agar anchorage-independent growth, TC71 expressing E9R; format: cell-based
Description: as §6, §2
as §7, with “The E9R DNA sequence was synthesized and the hybridized oligodeoxynucleotides were inserted into the cloning site downstream of either EGFP or EGFP and nuclear export sequence.” left out

[6] = test system: SKNAS (neuroblastoma) cells; assay: Soft-agar anchorage-independent growth, SKNAS expressing E9R; format: cell-based; details: expressed E9R
Description: as §2

Chain of CBP (aa 1680-1890) (Q92793 1680-1890): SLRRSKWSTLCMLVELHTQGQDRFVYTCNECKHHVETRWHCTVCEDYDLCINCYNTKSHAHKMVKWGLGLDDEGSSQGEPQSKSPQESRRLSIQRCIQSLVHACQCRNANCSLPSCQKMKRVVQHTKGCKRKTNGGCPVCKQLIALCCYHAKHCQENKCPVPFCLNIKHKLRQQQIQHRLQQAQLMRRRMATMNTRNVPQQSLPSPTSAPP

effect upon the binding of CBP (CBP (aa 1680-1890))	IC50 (RHA binding to EWS-FLI1 [2])	IC50 (RHA binding to EWS-FLI1 [3]; GST-RHA (630-1020), read-out: IC50 to prevent complex formation)	binding of E9R to EWS-FLI1 (EWS-FLI1; 32 μM E9R alone)	binding of E9R to EWS-FLI1 (EWS-FLI1; 64 μM E9R alone)	concentration giving decreased association to 50% (RHA binding to EWS-FLI1 [3]; GST-RHA (647-1075) and full-length EWS-FLI1)	Molecule	ESFT cell growth with fluorescein conjugated peptides (TC32 cells)	cell growth [1]	cell growth [4]	cell growth [5]	xenograft growth of cells expressing peptide (ESFT cells TC71)	soft agar colony growth (rhabdomyosarcoma cells)	reduction of TC71 colony formation (TC71 (ESFT) cells; E9R expressed as EGFP fusion throughout the cell)	soft agar colony growth (TC71 (ESFT) cells; E9R expressed throughout cells (pGE9R))	anchorage-independent growth [6]
lacking a dose-dependent effect	~200 nM	~100 nM	–	–	–	CC[C@H](C)[C@H](NC(=O)[C@H](CCCCN)NC(=O)[C@@H](NC(=O)[C@H](CCC(N)=O)NC(=O)[C@H](CCCNC(=N)N)NC(=S)Nc1ccc2c(c1)C(=O)OC21c2ccc(O)cc2Oc2cc(O)ccc21)[C@@H](C)CC)C(=O)N[C@@H](Cc1c[nH]c2ccccc12)C(=O)N[C@@H](Cc1ccccc1)C(=O)N[C@@H](CCC(N)=O)C(=O)N[C@@H](CC(N)=O)C(=O)N[C@@H](CCCNC(=N)N)C(=O)N[C@@H](CCCNC(=N)N)C(=O)N[C@@H](CCSC)C(=O)N[C@@H](CCCCN)C(=O)N[C@@H](Cc1c[nH]c2ccccc12)C(=O)N[C@@H](CCCCN)C(=O)N[C@@H](CCCCN)C(=O)N1CCC[C@H]1C(=O)N1CCC[C@H]1C(=O)N1CCC[C@H]1C(=O)N[C@@H](CC(C)C)C(=O)N[C@@H](CC(=O)O)C(=O)N[C@@H](C)C(=O)N[C@H](C(=O)N[C@H](C(=O)N[C@@H](CCC(=O)O)C(=O)N[C@@H](C)C(=O)O)[C@@H](C)CC)C(C)C [E9RP] ({FITC}-RQIKIWFQNRRMKWKKPPPLDAVIEA-OH; C-terminus assumed)	significantly reduced ESFT cell growth	did not affect the growth	inhibited the growth	not growth inhibited	–	–	–	–	–
–	–	–	13 R.U.	17 R.U.	0.1 µM	PPPLDAVIEA [E9R, peptide corresponding to aa 823-832 of human RHA]	–	–	–	–	reduces ESFT xenografts growth	not reduced	95%	suppressed	not affected
